According to paper PMC11234460, “In Silico Discovery of Stapled Peptide Inhibitor Targeting the Nur77‐PPARγ Interaction and Its Anti‐Breast‐Cancer Efficacy” (Advanced Science, 2024):
Where a SMILES comes first, the peptide text is derived from it. Bridges are numbered along the chain shown (N, C = ends). [ ]: non-standard residue; d: D form. S5 = C=CCCC[C@](C)(N)C(=O)O

Columns and labels:
MCF-10A cells = settings: 24 h, CCK-8
Protocol: (§1) MCF7, MDA‐MB‐231, and MDA‐BoM‐1833 cells (5000 cells/well) were seeded in 96‐well plates and cultured overnight at 37°C and 5% CO2. The cells were then treated with fresh basic medium containing various concentrations (1/2/5/10/20 × 10^−6 M) of compounds. After 24 h of incubation, the cells were incubated with a basic medium containing 10% Cell Counting Kit‐8 (Dojindo, CK‐04) for 2 h. Cell viability was evaluated by measuring the absorbance at 450 nm. The formula used was [(As‐Ab)/(Ac‐Ab)] × 100%, where as represents the absorbance of the drug‐treated group, Ac represents the absorbance of the control group treated with medium, and Ab represents the absorbance of the blank control containing only medium.

MDA-MB-231 cells = assay: Energy metabolism analysis (Seahorse OCR); assay type: cell-based; settings: MDA-MB-231, 24 h treatment, n = 3
Protocol: Cell energy metabolism analysis was conducted using a Seahorse cell energy metabolism analyzer (Agilent, USA). In brief, 8000 cells were seeded per well in a 96‐well XF96 plate (Agilent, 103794‐100) and cultured overnight. Subsequently, the cells were treated with various concentrations of peptides for 24 h. To prepare for metabolic stress injections, cartridge plates (Agilent, w15023) were hydrated with H2O for at least 12 h at 37 °C before the assay. 1 h before detection, the medium in each well was replaced with 180 µL XF calibrant solution (Agilent, 100840‐000), Afterward, the cell plate was replaced with 180 µL XF DMEM (Agilent, 103575‐100) with glucose (1 × 10^−2 M) (Agilent, 103577‐100), pyruvate (1 × 10^−3 M) (Agilent, 103578‐100) and glutamine (2 × 10^−3 M) (Agilent, 103579‐100) and the mixture was incubated in a CO2‐free incubator at 37 °C for 1 h. Then, 20 µL basic medium, 22 µL 1.5 × 10^−4 M oligomycin, 25 µL 1.5 × 10^−4 M FCCP, and 27 µL 5 × 10^−5 M ROT/AA (Agilent, 10315‐100) were added to wells A, B, C, and D, respectively, of the cartridge plates. The assay was carried out according to the manufacturer's instructions, and the OCR was reported in picomoles per min. The results were normalized to the cell number determined by the CCK‐8 assay.

MDA-BoM-1833 cells = assay: Cell viability assay (CCK-8); assay type: cell-based; settings: MDA-BoM-1833, 5 × 10^−6 M, 24 h
Protocol: as §1

[1] = tested on: MDA-MB-231-GFP tumor tissue; assay: Transcriptome analysis of xenograft tumor tissue; assay type: in vivo, mouse; settings: 10 mg group
Protocol: To establish the bone metastasis tumor model, 1×10^5 cells were injected into the left ventricle of each mouse (7–8 weeks old), and surgery was monitored using a cardiac ultrasound instrument. The mice were randomly divided into three groups and treated with PBS (control group, n = 6), 5 mg kg^−1 ST‐CY14 (n = 6), and 10 mg kg^−1 ST‐CY14 (n = 6) Tumor cell metastasis was monitored using an in vivo imaging instrument (IVIS Spectrum, PerkinElmer, USA). by intraperitoneal injection of 20 mg kg^−1 D‐luciferin. The mice were treated with ST‐CY14 via intravenous injection using a 100 µL PBS solution every 2 days starting on the designated day after tumor cell injection. Bone tissue with MDA‐BoM‐1833 cell metastasis was obtained and stained for TRAP. The mice sera were collected and analyzed for BSP and β‐CTx levels using ELISA (Lengton, BPE10823, BPE10438). For the orthotopic xenograft tumor model, 3×10^6 cells were injected into the fourth pair of breast pads on the left side of the mouse (4–5 weeks old). The mice were treated with ST‐CY14 every two days once the tumor volume reached 30–50 mm^3, with the same groups as in the bone metastasis tumor model. The tumors were collected and stained for H&E, Ki‐67, and TUNEL assays, which were conducted by Wuhan Servicebio Technology Co., Ltd. Major organs (heart, liver, spleen, lung, and kidney) were also collected for H&E analysis by Wuhan Servicebio Technology Co., Ltd. The Transcriptome and LC/MS targeted lipid metabolome were sequenced by OE Biotech, Inc., Shanghai, China. To evaluate the efficacy of Csn‐B in inhibiting breast cancer bone metastasis, an animal model was established as described above. The mice were randomly divided into three groups and treated with PBS (control group, n = 6), 10 mg kg^−1 ST‐CY14 (n = 6) in 100 µL PBS solution, and 5 mg kg^−1 ST‐CY14 (n = 6) in a 100 µL mixed solution (5% DMSO, 20% PEG 400, 5% Tween 80, and 70% normal saline) via intravenous injection every 2 days starting on the designated day after tumor cell injection.

In the case of `C[C@@H](O)[C@@H]1NC(=O)[C@H](CCCNC(=N)N)NC(=O)[C@H](CCCNC(=N)N)NC(=O)[C@@](C)(NC(=O)[C@H](Cc2ccccc2)NC(=O)CNC(=O)[C@H](CCCCN)NC(=O)[C@H](CS)NC(=O)CNC(=O)[C@H](CCC(=O)O)NC(=O)[C@@H](N)CS)CCCC=CCCC[C@@](C)(C(=O)N[C@@H](CCCNC(=N)N)C(=O)N[C@@H](Cc2ccc(O)cc2)C(=O)N[C@@H](Cc2ccc(O)cc2)C(=O)NCC(=O)N[C@@H](CCCNC(=N)N)C(=O)N[C@@H](CCCCN)C(=O)N[C@@H](CCCCN)C(=O)N[C@@H](CCCNC(=N)N)C(=O)N[C@@H](CCCNC(=N)N)C(=O)N[C@@H](CCC(N)=O)C(=O)N[C@@H](CCCNC(=N)N)C(=O)N[C@@H](CCCNC(=N)N)C(=O)N[C@@H](CCCNC(=N)N)C(N)=O)NC1=O` [ST-CY14] (H-CEGCKGF[S5]RRT[S5]RYYGRKKRRQRRR-NH2; staple 8-12), the “Sensitivity of normal breast cells” value (MCF-10A cells) is reported as “less sensitive to ST‐CY14”, the “Oxygen consumption rate (OCR)” value (MDA-MB-231 cells) is reported as “significantly reduced” and the “Cell viability / proliferation” value (MDA-BoM-1833 cells) is reported as “significantly attenuated breast tumor cell proliferation”. The “AGT expression in tumor tissue (transcriptome)” value (“AGT expression in tumor tissue” for short) ([1]; sample 1) was 0.07902, the “ANGPTL4 expression in tumor tissue (transcriptome)” value (shortened to “ANGPTL4 expression in tumor tissue”) ([1]; sample 1) was 3.636 and the “CD36 expression in tumor tissue (transcriptome)” value (“CD36 expression in tumor tissue” below) ([1]; sample 1) was 0. For the same compound, the “CD74 expression in tumor tissue (transcriptome)” value (shortened to “CD74 expression in tumor tissue”) ([1]; sample 1) was 0.3461, the “CNR1 expression in tumor tissue (transcriptome)” value (“CNR1 expression in tumor tissue” for short) ([1]; sample 1) was 0.02158 and the “CYP3A5 expression in tumor tissue (transcriptome)” value (“CYP3A5 expression in tumor tissue” below) ([1]; sample 1) was 0.3686. The “FABP4 expression in tumor tissue (transcriptome)” value (“FABP4 expression in tumor tissue” for short) ([1]; sample 1) was 0.03159, the “INSL5 expression in tumor tissue (transcriptome)” value (“INSL5 expression in tumor tissue” for short) ([1]; sample 1) was 0 and the “ITGAL expression in tumor tissue (transcriptome)” value (“ITGAL expression in tumor tissue” for short) ([1]; sample 1) was 0.005294. For the same compound, the “OAS1 expression in tumor tissue (transcriptome)” value (“OAS1 expression in tumor tissue” for short) ([1]; sample 1) was 0.1526, the “OLAH expression in tumor tissue (transcriptome)” value (“OLAH expression in tumor tissue” below) ([1]; sample 1) was 0.7465 and the “PLIN1 expression in tumor tissue (transcriptome)” value (shortened to “PLIN1 expression in tumor tissue”) ([1]; sample 1) was 0.1271. For the same compound, the “POLR2J3 expression in tumor tissue (transcriptome)” value (from here on “POLR2J3 expression in tumor tissue”) ([1]; sample 1) was 0.1542, the “PTPRC expression in tumor tissue (transcriptome)” value (shortened to “PTPRC expression in tumor tissue”) ([1]; sample 1) was 0.09088 and the “PYY expression in tumor tissue (transcriptome)” value (from here on “PYY expression in tumor tissue”) ([1]; sample 1) was 0.3061. For the same compound, the “RNF152 expression in tumor tissue (transcriptome)” value (shortened to “RNF152 expression in tumor tissue”) ([1]; sample 1) was 0.2243, the “SLX1B expression in tumor tissue (transcriptome)” value (shortened to “SLX1B expression in tumor tissue”) ([1]; sample 1) was 0.4199 and the “UTS2B expression in tumor tissue (transcriptome)” value (from here on “UTS2B expression in tumor tissue”) ([1]; sample 1) was 0.2634. The “VAMP7 expression in tumor tissue (transcriptome)” value (“VAMP7 expression in tumor tissue” for short) ([1]; sample 1) was 0.394, the “ZNF404 expression in tumor tissue (transcriptome)” value (“ZNF404 expression in tumor tissue” for short) ([1]; sample 1) was 0.5136 and the “ZNF429 expression in tumor tissue (transcriptome)” value (from here on “ZNF429 expression in tumor tissue”) ([1]; sample 1) was 0.01399. The “AGT expression in tumor tissue” value ([1]; sample 2) was 0.282, the “ANGPTL4 expression in tumor tissue” value ([1]; sample 2) was 6.216 and the “CD36 expression in tumor tissue” value ([1]; sample 2) was 0.00582. The “CD74 expression in tumor tissue” value ([1]; sample 2) was 0.2008, the “CNR1 expression in tumor tissue” value ([1]; sample 2) was 0.02567 and the “CYP3A5 expression in tumor tissue” value ([1]; sample 2) was 0.2054. The “FABP4 expression in tumor tissue” value ([1]; sample 2) was 0, the “INSL5 expression in tumor tissue” value ([1]; sample 2) was 1.442 and the “ITGAL expression in tumor tissue” value ([1]; sample 2) was 0. The “OAS1 expression in tumor tissue” value ([1]; sample 2) was 0.4448, the “OLAH expression in tumor tissue” value ([1]; sample 2) was 0.9577 and the “PLIN1 expression in tumor tissue” value ([1]; sample 2) was 0.01163. The “POLR2J3 expression in tumor tissue” value ([1]; sample 2) was 0.3872, the “PTPRC expression in tumor tissue” value ([1]; sample 2) was 0.01081 and the “PYY expression in tumor tissue” value ([1]; sample 2) was 1.722. The “RNF152 expression in tumor tissue” value ([1]; sample 2) was 0.1875, the “SLX1B expression in tumor tissue” value ([1]; sample 2) was 0.5583 and the “UTS2B expression in tumor tissue” value ([1]; sample 2) was 0.2673. For the same compound, the “VAMP7 expression in tumor tissue” value ([1]; sample 2) was 0.4688, the “ZNF404 expression in tumor tissue” value ([1]; sample 2) was 0.685 and the “ZNF429 expression in tumor tissue” value ([1]; sample 2) was 0.06657. The “AGT expression in tumor tissue” value ([1]; sample 3) was 0.02516, the “ANGPTL4 expression in tumor tissue” value ([1]; sample 3) was 3.683 and the “CD36 expression in tumor tissue” value ([1]; sample 3) was 0.004672. For the same compound, the “CD74 expression in tumor tissue” value ([1]; sample 3) was 0.1451, the “CNR1 expression in tumor tissue” value ([1]; sample 3) was 0.07831 and the “CYP3A5 expression in tumor tissue” value ([1]; sample 3) was 0.312. The “FABP4 expression in tumor tissue” value ([1]; sample 3) was 0.06034, the “INSL5 expression in tumor tissue” value ([1]; sample 3) was 0.1867 and the “ITGAL expression in tumor tissue” value ([1]; sample 3) was 0. For the same compound, the “OAS1 expression in tumor tissue” value ([1]; sample 3) was 0.2478, the “OLAH expression in tumor tissue” value ([1]; sample 3) was 1.048 and the “PLIN1 expression in tumor tissue” value ([1]; sample 3) was 0. The “POLR2J3 expression in tumor tissue” value ([1]; sample 3) was 0.1963, the “PTPRC expression in tumor tissue” value ([1]; sample 3) was 0.04774 and the “PYY expression in tumor tissue” value ([1]; sample 3) was 0.5582. The “RNF152 expression in tumor tissue” value ([1]; sample 3) was 0.2258, the “SLX1B expression in tumor tissue” value ([1]; sample 3) was 0.5662 and the “UTS2B expression in tumor tissue” value ([1]; sample 3) was 0.1702. For the same compound, the “VAMP7 expression in tumor tissue” value ([1]; sample 3) was 0.3548, the “ZNF404 expression in tumor tissue” value ([1]; sample 3) was 0.3567 and the “ZNF429 expression in tumor tissue” value ([1]; sample 3) was 0.0501.
